Reference: ChEMBL document CHEMBL5512691, “Synthetically Feasible De Novo Molecular Design of Leads Based on a Reinforcement Learning Model: AI-Assisted Discovery of an Anti-IBD Lead Targeting CXCR4” (J Med Chem, 2024)
Calls of active or inactive are those of the source. The rule behind the calls is not given here.

Tests used:
[1] = target: T1, C-X-C chemokine receptor type 4 (Homo sapiens, UniProt P61073); experiment: (§1) Competitive binding affinity to CXCR4 (unknown origin) assessed as inhibition of CXCR4 to TN14003 interaction at 10 nM preincubated for 10 mins followed by compound washout and subsequent TN14003 addition for 30 mins prior to incubation under dark condition for 30 mins by DAPI staining based laser scanning confocal microscopic analysis relative to control; parameters: scale not given: the % may be the effect or the level left
[2] = tested on: Mus musculus; experiment: Anti-inflammatory activity in DSS induced C57BL/6 mouse model of colitis assessed as decrease in IL-6 expression at 25 mg/kg, IG administered twice daily for 2 weeks by bioluminescence microscopy; format: functional, organism-based
[3] = tested on: Mus musculus; experiment: Anti-inflammatory activity in DSS induced C57BL/6 mouse model of colitis assessed as decrease in TNF-alpha expression at 25 mg/kg, IG administered twice daily for 2 weeks by bioluminescence microscopy; format: functional, organism-based
[4] = tested on: Mus musculus; experiment: Anti-inflammatory activity in DSS induced C57BL/6 mouse model of colitis assessed as reduction in DAI score at 25 mg/kg, IG administered twice daily for 2 weeks (reference value: 3); format: functional
[5] = tested on: Mus musculus; experiment: Anti-inflammatory activity in DSS induced C57BL/6 mouse model of colitis assessed as decrease in IL-1beta expression at 25 mg/kg, IG administered twice daily for 2 weeks by bioluminescence microscopy; format: functional, organism-based
[6] = tested on: Mus musculus; experiment: Anti-inflammatory activity in DSS induced C57BL/6 mouse model of colitis assessed as inhibition rate at 25 mg/kg, IG administered twice daily for 2 weeks; format: functional; parameters: scale not given: the % may be the effect or the level left
[7] = Volume of distribution in Sprague-Dawley rat at 2 mg/kg, IV measured upto 12 hrs by LC-MS/MS analysis; format: ADME, organism-based; conditions: in vivo
[8] = Stability in human liver microsomes assessed as half life measured upto 45 mins in presence of NADPH by LC-MS analysis; format: ADME, Microsome
[9] = tested on: Mus musculus; experiment: Anti-inflammatory activity in DSS induced C57BL/6 mouse model of colitis assessed as decrease in colon MPO level at 25 mg/kg, IG administered twice daily for 2 weeks by microplate reader assay; format: functional, organism-based
[10] = AUC(0 to infinity) in Sprague-Dawley rat at 2 mg/kg, iv measured upto 12 hrs by LC-MS/MS analysis; format: ADME, organism-based; conditions: in vivo
[11] = MRT in Sprague-Dawley rat at 2 mg/kg, iv measured upto 12 hrs by LC-MS/MS analysis; format: ADME, organism-based; conditions: in vivo
[12] = Volume of distribution in Sprague-Dawley rat at 20 mg/kg, IG measured upto 12 hrs by LC-MS/MS analysis; format: ADME, organism-based; conditions: in vivo, po
[13] = Stability in human plasma assessed as compound remaining measured upto 120 mins by LC-MS analysis; format: ADME, cell-free; conditions: read-out: Stability
[14] = tested on: RAW264.7; experiment: Inhibition of CXCL-12 induced chemotaxis in mouse RAW264.7 cells incubated for 22 hrs by transwell assay; format: functional
[15] = Clearance in Sprague-Dawley rat at 2 mg/kg, iv measured upto 12 hrs by LC-MS/MS analysis; format: ADME, organism-based; conditions: in vivo
[16] = MRT in Sprague-Dawley rat at 20 mg/kg, IG measured upto 12 hrs by LC-MS/MS analysis; format: ADME, organism-based; conditions: in vivo, po
[17] = Stability in human plasma assessed as half life measured upto 120 mins by LC-MS analysis; format: ADME, cell-free
[18] = tested on: Mus musculus; experiment: Anti-inflammatory activity in DSS induced C57BL/6 mouse model of colitis assessed as decrease in number of bleeding area at 25 mg/kg, IG administered twice daily for 2 weeks; format: functional, organism-based
[19] = tested on: Mus musculus; experiment: Anti-inflammatory activity in DSS induced C57BL/6 mouse model of colitis assessed as alleviation in body weight loss at 25 mg/kg, IG administered twice daily for 2 weeks; format: functional, organism-based
[20] = Cmax in Sprague-Dawley rat at 2 mg/kg, iv measured upto 12 hrs by LC-MS/MS analysis; format: ADME, organism-based; conditions: in vivo
[21] = Tmax in Sprague-Dawley rat at 2 mg/kg, iv measured upto 12 hrs by LC-MS/MS analysis; format: ADME, organism-based; conditions: in vivo
[22] = Stability in human liver microsomes assessed as compound remaining measured upto 45 mins in presence of NADPH by LC-MS analysis; format: ADME, Microsome; conditions: read-out: Stability
[23] = tested on: Mus musculus; experiment: Anti-inflammatory activity in DSS induced C57BL/6 mouse model of colitis assessed as decrease in thickness of colon mucosa at 25 mg/kg, IG administered twice daily for 2 weeks by bioluminescence microscopy; format: functional, organism-based
[24] = AUC(0 to t) in Sprague-Dawley rat at 20 mg/kg, IG measured upto 12 hrs by LC-MS/MS analysis; format: ADME, organism-based; conditions: in vivo, po
[25] = tested on: RAW264.7; experiment: Inhibition of CXCL-12 induced chemotaxis in mouse RAW264.7 cells at 10 nM incubated for 22 hrs by crystal violet staining based transwell assay; format: functional, cell-based
[26] = Bioavailability in Sprague-Dawley rat at 20 mg/kg, IG measured upto 12 hrs by LC-MS/MS analysis; format: ADME, organism-based; conditions: in vivo, po
[27] = tested on: Mus musculus; experiment: Anti-inflammatory activity in DSS induced C57BL/6 mouse model of colitis assessed as alleviation in colon edema at 25 mg/kg, IG administered twice daily for 2 weeks; format: functional, organism-based
[28] = Half-life in Sprague-Dawley rat at 20 mg/kg, IG measured upto 12 hrs by LC-MS/MS analysis; format: ADME, organism-based; conditions: in vivo, po
[29] = Clearance in Sprague-Dawley rat at 20 mg/kg, IG measured upto 12 hrs by LC-MS/MS analysis; format: ADME, organism-based; conditions: in vivo, po
[30] = tested on: Mus musculus; experiment: Anti-inflammatory activity in DSS induced C57BL/6 mouse model of colitis assessed as decrease in intestinal track inflammation at 25 mg/kg, IG administered twice daily for 2 weeks by bioluminescence microscopy; format: functional, organism-based
[31] = tested on: Mus musculus; experiment: Anti-inflammatory activity in DSS induced C57BL/6 mouse model of colitis assessed as increase in colon length at 25 mg/kg, IG administered twice daily for 2 weeks; format: functional, organism-based
[32] = Cmax in Sprague-Dawley rat at 20 mg/kg, IG measured upto 12 hrs by LC-MS/MS analysis; format: ADME, organism-based; conditions: in vivo, po
[33] = tested on: Mus musculus; experiment: Anti-inflammatory activity in DSS induced C57BL/6 mouse model of colitis assessed as restoration of number of goblet cells at 25 mg/kg, IG administered twice daily for 2 weeks by bioluminescence microscopy; format: functional, organism-based
[34] = Half-life in Sprague-Dawley rat at 2 mg/kg, iv measured upto 12 hrs by LC-MS/MS analysis; format: ADME, organism-based; conditions: in vivo
[35] = AUC(0 to infinity) in Sprague-Dawley rat at 20 mg/kg, IG measured upto 12 hrs by LC-MS/MS analysis; format: ADME, organism-based; conditions: in vivo, po
[36] = AUC(0 to t) in Sprague-Dawley rat at 2 mg/kg, iv measured upto 12 hrs by LC-MS/MS analysis; format: ADME, organism-based; conditions: in vivo
[37] = tested on: Mus musculus; experiment: Anti-inflammatory activity in DSS induced C57BL/6 mouse model of colitis assessed as restoration of structural integrity of epithelium at 25 mg/kg, IG administered twice daily for 2 weeks by bioluminescence microscopy; format: functional, organism-based
[38] = tested on: Mus musculus; experiment: Anti-inflammatory activity in DSS induced C57BL/6 mouse model of colitis assessed as decrease in number of bleeding points at 25 mg/kg, IG administered twice daily for 2 weeks; format: functional, organism-based
[39] = target: T1, C-X-C chemokine receptor type 4; experiment: as §1, with “interaction” for “interaction at 10 nM”, “analysis” for “analysis relative to control”
[40] = tested on: Mus musculus; experiment: Anti-inflammatory activity in DSS induced C57BL/6 mouse model of colitis assessed as decrease in inflammatory track infiltration at 25 mg/kg, IG administered twice daily for 2 weeks by bioluminescence microscopy; format: functional, organism-based
[41] = tested on: Mus musculus; experiment: Anti-inflammatory activity in DSS induced C57BL/6 mouse model of colitis assessed as restoration of integrity of glands at 25 mg/kg, IG administered twice daily for 2 weeks by bioluminescence microscopy; format: functional, organism-based
[42] = tested on: Mus musculus; experiment: Anti-inflammatory activity in DSS induced C57BL/6 mouse model of colitis assessed as decrease in inflammatory cell infiltration at 25 mg/kg, IG administered twice daily for 2 weeks by bioluminescence microscopy; format: functional, organism-based
[43] = Tmax in Sprague-Dawley rat at 20 mg/kg, IG measured upto 12 hrs by LC-MS/MS analysis; format: ADME, organism-based; conditions: in vivo, po

T1 sequence (P61073 whole entry): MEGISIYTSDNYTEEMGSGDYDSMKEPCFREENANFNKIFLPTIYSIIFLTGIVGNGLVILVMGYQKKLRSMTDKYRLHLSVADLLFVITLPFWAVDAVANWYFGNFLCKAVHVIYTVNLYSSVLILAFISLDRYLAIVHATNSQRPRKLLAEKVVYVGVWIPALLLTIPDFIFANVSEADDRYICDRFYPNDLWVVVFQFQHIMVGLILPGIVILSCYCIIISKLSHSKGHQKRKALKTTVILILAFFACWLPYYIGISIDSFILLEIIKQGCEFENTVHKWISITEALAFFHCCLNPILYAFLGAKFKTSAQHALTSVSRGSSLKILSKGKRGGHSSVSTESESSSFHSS

Structure (SMILES): Cc1c(C)c2ccc(OCc3ccc(F)c(F)c3)cc2oc1=O
- Activity [1]: 51.9%

Structure (SMILES): Cc1ccc(CN2CCN(c3nc(N)c4sccc4n3)CC2)cc1
- Activity [1]: 59.1%

Structure (SMILES): COc1ccc(C(=O)N[C@@H]2CCc3[nH]c4ccccc4c3C2)cc1
- Activity [1]: 38.3%

Structure (SMILES): O=S(=O)(NCc1ccc(-c2ccccc2)cc1)c1cc(F)c(F)cc1F
- Activity [1]: 54.9%

Structure (SMILES): O=C(NC1CCN(Cc2ccccc2)CC1)c1ccc(Cl)cc1Cl
- Activity [1]: 61.2%

Structure (SMILES): Cc1cccc(NC(=O)N2CCN(c3nccc4ccccc34)CC2)c1
- Activity [1]: 33.7%

Structure (SMILES): c1cc(CN2CCCNCCNCCCNCC2)ccc1CN1CCCNCCNCCCNCC1 [PLERIXAFOR]
- Activity [1]: 62.9%
- Activity [2]: Active
- Activity [3]: Active
- Activity [4]: 1.8
- Activity [5]: Active
- Activity [6]: 40%

Structure (SMILES): Cc1cc(O)cc(C(=O)N2CCN(c3ccc(F)cc3)CC2)c1
- Activity [1]: 64.3%

Structure (SMILES): O=C(c1cnc2ccccc2c1)N1CCC(N2CCCC2)CC1
- Activity [1]: 64.5%

Structure (SMILES): O=C(NO)c1ccc(NC(=O)c2ccccc2C(F)(F)F)cc1
- Activity [1]: 55.4%

Structure (SMILES): O=C(c1cnc2ccccc2c1)N1CCN(c2ccccc2F)CC1
- Activity [1]: 52.2%

Structure (SMILES): Fc1ccc(F)c(NCCN2CCN(c3nccc4ccccc34)CC2)c1
- Activity [1]: 58.6%

Structure (SMILES): O=C(NCc1ccccc1-n1cccn1)c1cnc2ccccc2n1
- Activity [1]: 11.1%

Structure (SMILES): CC(=O)N1CCC(N(Cc2cccc(C)c2O)C(=O)c2cccc3ccccc23)CC1
- Activity [1]: 59.2%

Structure (SMILES): CC1CN(C(=O)c2ccccc2C(=O)Nc2ccccc2)CCN1C(=O)c1ccc(F)c(F)c1 (configuration not stated)
- Activity [1]: 62.7%

Structure (SMILES): O=S(=O)(c1ccc(F)c(F)c1)N1CCN(c2ccc3ccccc3n2)CC1
- Activity [1]: 64.8%

Structure (SMILES): O=C(c1ccco1)N1CCN(C2CCN(c3ccccc3)CC2)CC1
- Vd [7]: 6.04 L/kg
- half-life [8]: 1.12 h
- Activity [1]: 78.9%
- Activity [9]: Active
- AUC(0-inf) [10]: 340 ng·h/mL
- MRT [11]: 1.03 h
- Vd [12]: 16.16166 L/kg
- remaining at 2 h [13]: 87%
- inhibition (INH) [14]: 79.19%
- Activity [2]: Active
- clearance [15]: 99.4 mL/min/kg
- Activity [3]: Active
- MRT [16]: 2.62 h
- half-life [17]: > 2 h
- Activity [18]: Active
- Activity [4]: 1.4
- Activity [5]: Active
- Activity [19]: Active
- Cmax [20]: 351 ng/mL
- Tmax [21]: 4.8 min
- remaining at 0.75 h [22]: 62%
- Activity [23]: Active
- AUC(0-t) at 12 h [24]: 3010 ng·h/mL
- inhibition [25]: Active
- bioavailability [26]: 91.1%
- Activity [27]: Active
- half-life [28]: 1.71 h
- CL/F [29]: 109 mL/min/kg
- Activity [30]: Active
- Activity [31]: Active
- Cmax [32]: 1440 ng/mL
- Activity [33]: Active
- half-life [34]: 0.81 h
- AUC(0-inf) [35]: 3070 ng·h/mL
- AUC(0-t) at 12 h [36]: 330 ng·h/mL
- Activity [37]: Active
- Activity [38]: Active
- IC50 [39]: 3.2 nM
- Activity [40]: Active
- Activity [41]: Active
- Activity [42]: Active
- Activity [6]: 53.3%
- Tmax [43]: 0.25 h

Structure (SMILES): Cc1ccc(C)c(CC(=O)N2CCN(c3ccccc3)CC2)c1
- Activity [1]: 59.5%

Structure (SMILES): O=C(NC1CCN(Cc2cccnc2)CC1)c1cnc2ccccc2c1
- Activity [1]: 67.1%
- Activity [9]: Active
- inhibition (INH) [14]: 75.63%
- Activity [2]: Active
- Activity [3]: Active
- Activity [18]: Active
- Activity [4]: 2
- Activity [5]: Active
- Activity [19]: Active
- inhibition [25]: Active
- Activity [27]: Active
- Activity [31]: Active
- Activity [38]: Active
- IC50 [39]: 5.7 nM
- Activity [6]: 33.3%

Structure (SMILES): O=C(c1cnc2ccccc2c1)N1CCC(N2CCOCC2)CC1
- Activity [1]: 53.6%

Structure (SMILES): O=C(c1cc2ccccc2[nH]1)N1CCN(c2ccc(Cl)cn2)CC1
- Activity [1]: 40.2%
